ChEMBL document CHEMBL4420075, “Seriniquinones, melanoma-specific anticancer agents” (2016)

What was measured:
Format in all cases: functional
[1] = system: SN12C; test: Growth inhibition of human SN12C cells assessed as cell growth incubated for 48 hrs by sulforhodamine B assay; set-up: concentration or dose not given beside the values
[2] = system: A498; test: Growth inhibition of human A498 cells assessed as cell growth incubated for 48 hrs by sulforhodamine B assay; set-up: concentration or dose not given beside the values
[3] = system: Malme-3M; test: Growth inhibition of human MALME-3M cells assessed as cell growth incubated for 48 hrs by sulforhodamine B assay; set-up: scale not given: the % may be the effect or the level left
[4] = system: SNB-19; test: Growth inhibition of human SNB19 cells assessed as cell growth incubated for 48 hrs by sulforhodamine B assay; set-up: concentration or dose not given beside the values
[5] = system: MDA-MB-435; test: Growth inhibition of human MDA-MB-435 cells assessed as cell growth incubated for 48 hrs by sulforhodamine B assay; set-up: concentration or dose not given beside the values
[6] = system: HCC 2998; test: Growth inhibition of human HCC2998 cells assessed as cell growth incubated for 48 hrs by sulforhodamine B assay; set-up: concentration or dose not given beside the values
[7] = system: HT-29; test: Growth inhibition of human HT-29 cells assessed as cell growth incubated for 48 hrs by sulforhodamine B assay; set-up: concentration or dose not given beside the values
[8] = system: NCI-H23; test: Growth inhibition of human NCI-H23 cells assessed as cell growth incubated for 48 hrs by sulforhodamine B assay; set-up: concentration or dose not given beside the values
[9] = system: COLO 205; test: Growth inhibition of human COLO205 cells assessed as cell growth incubated for 48 hrs by sulforhodamine B assay; set-up: concentration or dose not given beside the values
[10] = system: OVCAR-5; test: Growth inhibition of human OVCAR5 cells assessed as cell growth incubated for 48 hrs by sulforhodamine B assay; set-up: scale not given: the % may be the effect or the level left
[11] = system: UO-31; test: Growth inhibition of human UO31 cells assessed as cell growth incubated for 48 hrs by sulforhodamine B assay; set-up: concentration or dose not given beside the values
[12] = system: HL-60(TB); test: Growth inhibition of human HL-60(TB) cells assessed as cell growth incubated for 48 hrs by sulforhodamine B assay; set-up: concentration or dose not given beside the values
[13] = system: HOP-92; test: Growth inhibition of human HOP92 cells assessed as cell growth incubated for 48 hrs by sulforhodamine B assay; set-up: concentration or dose not given beside the values
[14] = system: SK-MEL-28; test: Growth inhibition of human SK-MEL-28 cells assessed as cell growth incubated for 48 hrs by sulforhodamine B assay; set-up: concentration or dose not given beside the values
[15] = system: SK-OV-3; test: Growth inhibition of human SKOV3 cells assessed as cell growth incubated for 48 hrs by sulforhodamine B assay; set-up: concentration or dose not given beside the values
[16] = system: OVCAR-8; test: Growth inhibition of human OVCAR8 cells assessed as cell growth incubated for 48 hrs by sulforhodamine B assay; set-up: concentration or dose not given beside the values
[17] = system: MCF7; test: Growth inhibition of human MCF7 cells assessed as cell growth incubated for 48 hrs by sulforhodamine B assay; set-up: concentration or dose not given beside the values
[18] = system: SK-MEL-5; test: Growth inhibition of human SK-MEL-5 cells assessed as cell growth incubated for 48 hrs by sulforhodamine B assay; set-up: concentration or dose not given beside the values
[19] = system: SW-620; test: Growth inhibition of human SW620 cells assessed as cell growth incubated for 48 hrs by sulforhodamine B assay; set-up: concentration or dose not given beside the values
[20] = system: RXF 393; test: Growth inhibition of human RXF393 cells assessed as cell growth incubated for 48 hrs by sulforhodamine B assay; set-up: concentration or dose not given beside the values
[21] = system: MDA-MB-231; test: Growth inhibition of human MDA-MB-231 cells assessed as cell growth incubated for 48 hrs by sulforhodamine B assay; set-up: concentration or dose not given beside the values
[22] = system: LOX IMVI; test: Growth inhibition of human LOXIMVI cells assessed as cell growth incubated for 48 hrs by sulforhodamine B assay; set-up: concentration or dose not given beside the values
[23] = system: HCT-15; test: Growth inhibition of human HCT15 cells assessed as cell growth incubated for 48 hrs by sulforhodamine B assay; set-up: scale not given: the % may be the effect or the level left
[24] = system: 786-0; test: Growth inhibition of human 786-0 cells assessed as cell growth incubated for 48 hrs by sulforhodamine B assay; set-up: concentration or dose not given beside the values
[25] = system: MOLT-4; test: Growth inhibition of human MOLT4 cells assessed as cell growth incubated for 48 hrs by sulforhodamine B assay; set-up: concentration or dose not given beside the values
[26] = system: IGROV-1; test: Growth inhibition of human IGROV1 cells assessed as cell growth incubated for 48 hrs by sulforhodamine B assay; set-up: scale not given: the % may be the effect or the level left
[27] = system: MDA-MB-468; test: Growth inhibition of human MDA-MB-468 cells assessed as cell growth incubated for 48 hrs by sulforhodamine B assay; set-up: concentration or dose not given beside the values
[28] = system: SF-539; test: Growth inhibition of human SF539 cells assessed as cell growth incubated for 48 hrs by sulforhodamine B assay; set-up: scale not given: the % may be the effect or the level left
[29] = system: SF-268; test: Growth inhibition of human SF268 cells assessed as cell growth incubated for 48 hrs by sulforhodamine B assay; set-up: concentration or dose not given beside the values
[30] = system: UACC-257; test: Growth inhibition of human UACC257 cells assessed as cell growth incubated for 48 hrs by sulforhodamine B assay; set-up: concentration or dose not given beside the values
[31] = system: NCI/ADR-RES; test: Growth inhibition of human NCI/ADR-RES cells assessed as cell growth incubated for 48 hrs by sulforhodamine B assay; set-up: concentration or dose not given beside the values
[32] = system: PC-3; test: Growth inhibition of human PC3 cells assessed as cell growth incubated for 48 hrs by sulforhodamine B assay; set-up: concentration or dose not given beside the values
[33] = system: RPMI-8226; test: Growth inhibition of human RPMI8226 cells assessed as cell growth incubated for 48 hrs by sulforhodamine B assay; set-up: concentration or dose not given beside the values
[34] = system: DU-145; test: Growth inhibition of human DU145 cells assessed as cell growth incubated for 48 hrs by sulforhodamine B assay; set-up: concentration or dose not given beside the values
[35] = system: NCI-H226; test: Growth inhibition of human NCI-H226 cells assessed as cell growth incubated for 48 hrs by sulforhodamine B assay; set-up: concentration or dose not given beside the values
[36] = system: CAKI-1; test: Growth inhibition of human Caki1 cells assessed as cell growth incubated for 48 hrs by sulforhodamine B assay; set-up: concentration or dose not given beside the values
[37] = system: ACHN; test: Growth inhibition of human ACHN cells assessed as cell growth incubated for 48 hrs by sulforhodamine B assay; set-up: scale not given: the % may be the effect or the level left
[38] = system: CCRF-CEM; test: Growth inhibition of human CCRF-CEM cells assessed as cell growth incubated for 48 hrs by sulforhodamine B assay; set-up: concentration or dose not given beside the values
[39] = system: M14; test: Growth inhibition of human M14 cells assessed as cell growth incubated for 48 hrs by sulforhodamine B assay; set-up: concentration or dose not given beside the values
[40] = system: HOP-62; test: Growth inhibition of human HOP62 cells assessed as cell growth incubated for 48 hrs by sulforhodamine B assay; set-up: concentration or dose not given beside the values
[41] = system: SR; test: Growth inhibition of human SR cells assessed as cell growth incubated for 48 hrs by sulforhodamine B assay; set-up: concentration or dose not given beside the values
[42] = system: NCI-H322M; test: Growth inhibition of human NCI-H322M cells assessed as cell growth incubated for 48 hrs by sulforhodamine B assay; set-up: scale not given: the % may be the effect or the level left
[43] = system: TK-10; test: Growth inhibition of human TK10 cells assessed as cell growth incubated for 48 hrs by sulforhodamine B assay; set-up: concentration or dose not given beside the values
[44] = system: T47D; test: Growth inhibition of human T47D cells assessed as cell growth incubated for 48 hrs by sulforhodamine B assay; set-up: concentration or dose not given beside the values
[45] = system: OVCAR-4; test: Growth inhibition of human OVCAR4 cells assessed as cell growth incubated for 48 hrs by sulforhodamine B assay; set-up: concentration or dose not given beside the values
[46] = system: HCT-116; test: Growth inhibition of human HCT116 cells assessed as cell growth incubated for 48 hrs by sulforhodamine B assay; set-up: concentration or dose not given beside the values
[47] = system: SF-295; test: Growth inhibition of human SF295 cells assessed as cell growth incubated for 48 hrs by sulforhodamine B assay; set-up: concentration or dose not given beside the values
[48] = system: KM12; test: Growth inhibition of human KM12 cells assessed as cell growth incubated for 48 hrs by sulforhodamine B assay; set-up: concentration or dose not given beside the values
[49] = system: SNB-75; test: Growth inhibition of human SNB75 cells assessed as cell growth incubated for 48 hrs by sulforhodamine B assay; set-up: concentration or dose not given beside the values
[50] = system: K562; test: Growth inhibition of human K562 cells assessed as cell growth incubated for 48 hrs by sulforhodamine B assay; set-up: concentration or dose not given beside the values
[51] = system: BT-549; test: Growth inhibition of human BT549 cells assessed as cell growth incubated for 48 hrs by sulforhodamine B assay; set-up: concentration or dose not given beside the values
[52] = system: A549; test: Growth inhibition of human A549/ATCC cells assessed as cell growth incubated for 48 hrs by sulforhodamine B assay; set-up: concentration or dose not given beside the values
[53] = system: OVCAR-3; test: Growth inhibition of human OVCAR3 cells assessed as cell growth incubated for 48 hrs by sulforhodamine B assay; set-up: concentration or dose not given beside the values
[54] = system: U-251; test: Growth inhibition of human U251 cells assessed as cell growth incubated for 48 hrs by sulforhodamine B assay; set-up: concentration or dose not given beside the values
[55] = system: UACC-62; test: Growth inhibition of human UACC62 cells assessed as cell growth incubated for 48 hrs by sulforhodamine B assay; set-up: concentration or dose not given beside the values
[56] = system: NCI-H522; test: Growth inhibition of human NCI-H522 cells assessed as cell growth incubated for 48 hrs by sulforhodamine B assay; set-up: concentration or dose not given beside the values
[57] = system: NCI-H460; test: Growth inhibition of human NCI-H460 cells assessed as cell growth incubated for 48 hrs by sulforhodamine B assay; set-up: concentration or dose not given beside the values
[58] = system: Hs-578T; test: Growth inhibition of human Hs 578T cells assessed as cell growth incubated for 48 hrs by sulforhodamine B assay; set-up: concentration or dose not given beside the values
[59] = system: SK-MEL-2; test: Growth inhibition of human SK-MEL-2 cells assessed as cell growth incubated for 48 hrs by sulforhodamine B assay; set-up: concentration or dose not given beside the values

SMILES: O=c1c2ccccc2c(=O)c2c1sc1c(=O)c3ccc(CCCO)cc3c(=O)c12
- Activity [1]: -85.36%
- Activity [2]: -93%
- Activity [3]: -94.59%
- Activity [4]: -83.74%
- Activity [5]: -94.78%
- Activity [6]: -89.21%
- Activity [7]: -50.87%
- Activity [8]: -39.8%
- Activity [9]: -100%
- Activity [10]: -95.91%
- Activity [11]: -96.45%
- Activity [12]: -39.5%
- Activity [13]: -25.51%
- Activity [14]: -91.59%
- Activity [15]: -74.3%
- Activity [16]: -30.24%
- Activity [17]: -57.56%
- Activity [18]: -100%
- Activity [19]: -71.53%
- Activity [20]: -77.25%
- Activity [21]: -36.34%
- Activity [22]: -80.49%
- Activity [23]: -68.1%
- Activity [24]: -90.2%
- Activity [25]: -48.47%
- Activity [26]: -77.75%
- Activity [27]: -69.73%
- Activity [28]: -100%
- Activity [29]: -52.35%
- Activity [30]: -98.14%
- Activity [31]: -22.56%
- Activity [32]: -10.27%
- Activity [33]: -37.51%
- Activity [34]: -98.88%
- Activity [35]: -53.49%
- Activity [36]: -39.14%
- Activity [37]: -100%
- Activity [38]: -42.44%
- Activity [39]: -94.97%
- Activity [40]: -100%
- Activity [41]: -22.18%
- Activity [42]: -96.79%
- Activity [43]: -94.99%
- Activity [44]: -45.39%
- Activity [45]: -100%
- Activity [46]: -56.49%
- Activity [47]: -93.12%
- Activity [48]: -60.46%
- Activity [49]: -96.48%
- Activity [50]: -26.48%
- Activity [51]: -95.56%
- Activity [52]: -66.71%
- Activity [53]: -43.56%
- Activity [54]: -92.1%
- Activity [55]: -88.56%
- Activity [56]: -73.7%
- Activity [57]: -65.79%
- Activity [58]: -11.73%
- Activity [59]: -72.58%
